Results on four molecules are retold here after DBAASP.

Among the test systems are Escherichia coli JM109; Pseudomonas aeruginosa; Staphylococcus aureus; Fusarium oxysporum; Candida sp.; Escherichia coli LEC001.
Holding throughout (test): ≥ marks a high value that may be exact or a test limit, other limits are often not marked, values filed in µg/mL are converted to µM
Assay [1] concerns Staphylococcus aureus ATCC 6538P.
Assay [2] relates to Trypanosoma brucei brucei GUT Tat3.1.
For assay [3], the system named is Trichophyton mentagrophytes IFO 5466.
For assay [4], the system named is Staphylococcus aureus KO-4.
The subject of assay [5] is Vibrio metschnikovii NCTC 8483.
The test system of assay [6] is Micrococcus luteus ATCC 4698.
Assay [7] deals with Staphylococcus aureus ATCC 25293.
The subject of assay [8] is Bacillus megaterium ATCC 17749.
For assay [9], the system named is Salmonella enterica subsp. enterica serovar Newport.
The subject of assay [10] is Escherichia coli 363 ATCC 11775.
Assay [11] has as its system Vibrio alginolyticus ATCC 17749.
The subject of assay [12] is Staphylococcus epidermidis ATCC 12228.
In assay [13] the test system is Bacillus subtilis IFO 3336.
For assay [14], the system named is Escherichia coli IFO 3301.
The test system of assay [15] is Pseudomonas aeruginosa PAO1.
Assay [16] concerns Staphylococcus aureus USA 300.
Assay [17] has as its system Staphylococcus aureus ATCC 9144.
In assay [18] the test system is Klebsiella pneumoniae NCTC 13368.
Assay [19] deals with Acinetobacter baumannii ATCC 17978.
The subject of assay [20] is Pseudomonas aeruginosa NCTC 13437.
Assay [21] has as its system Acinetobacter baumannii AYE.
Assay [22] relates to Escherichia coli NCTC 12923.

Values after ≈ are worked out from the molar mass of the structure shown. Some results are limits rather than exact numbers.

Take `CC[C@H](C)[C@H](NC(=O)[C@H](C)NC(=O)[C@H](CC(C)C)NC(=O)[C@H](Cc1ccc(O)cc1)NC(=O)[C@H](CC(C)C)NC(=O)[C@H](C)N)C(=O)N[C@@H](CCCN=C(N)N)C(=O)N[C@@H](CCCN=C(N)N)C(=O)N[C@@H](CCCN=C(N)N)C(N)=O` [ALYLAIRRR]: the minimal inhibitory concentration (MIC) (commonly the smallest concentration in the dilution series that meets the test's criterion for growth inhibition) in [1] was 1.33 µM (≈ 1.5 µg/mL); in [2], no less than 125 µM; in the assay on Escherichia coli JM109, 2.65 µM (≈ 3 µg/mL); in assay [3] it was no less than 53 µM; in assay [4], no less than 530 µM; against Pseudomonas aeruginosa, 354 µM (≈ 400 µg/mL). This molecule also yielded an MIC with Staphylococcus aureus of 21.2 µM (≈ 24 µg/mL).
With `CC(C)C[C@@H]1NC(=O)[C@H](CCCN=C(N)N)NC(=O)[C@H](Cc2cnc[nH]2)NC(=O)[C@H](Cc2c[nH]c3ccccc23)NC(=O)CNC(=O)CNC(=O)[C@@H](N)CSSC[C@@H](C(=O)O)NC(=O)[C@H](CCCN=C(N)N)NC1=O` [CGGWHRLRC], the MIC in assay [5] was no less than 75 µM; in assay [6], 28 µM (≈ 30.4 µg/mL); in assay [7], no less than 49 µM; in the assay on Fusarium oxysporum, 30 µM (≈ 32.6 µg/mL); in assay [8] it was no less than 51 µM; in assay [9] it was no less than 75 µM. Further, the MIC against Candida sp. was no less than 59 µM; in assay [10], no less than 75 µM; in [11], no less than 75 µM; in assay [12] it was 43 µM (≈ 46.7 µg/mL).
`NCC(=O)N[C@@H](Cc1cnc[nH]1)C(=O)NCC(=O)N[C@@H](Cc1cnc[nH]1)C(=O)NCC(=O)N[C@@H](Cc1cnc[nH]1)C(=O)NCC(=O)N[C@@H](Cc1cnc[nH]1)C(=O)NCC(=O)N[C@@H](Cc1cnc[nH]1)C(=O)O` [GHGHGHGHGH]: the MIC in assay [13] and in assay [14] was no less than 506 µM throughout.
As to `CC[C@H](C)[C@H](NC(=O)CNC(=O)[C@H](CO)NC(=O)[C@@H](N)Cc1c[nH]c2ccccc12)C(=O)N[C@@H](CCCN=C(N)N)C(=O)NCC(=O)N[C@@H](Cc1ccc(O)cc1)C(=O)N[C@@H](CCCCN)C(=O)NCC(=O)NCC(=O)N[C@@H](Cc1ccc(O)cc1)C(=O)N[C@@H](CCCCN)C(=O)NCC(=O)N[C@@H](CC(C)C)C(=O)N[C@@H](Cc1ccccc1)C(=O)N[C@@H](CCCCN)C(=O)N[C@@H](CCC(N)=O)C(=O)N[C@H](C(=O)N[C@@H](CC(N)=O)C(=O)N[C@@H](Cc1ccc(O)cc1)C(N)=O)[C@@H](C)O` [WSGIRGYKGGYKGLFKQTNY], the MIC in assay [15] is greater than 55.1 µM; in assay [16] it was no less than 55.1 µM; in the assay with Escherichia coli LEC001 it was no less than 55.1 µM; in assay [17], no less than 55.1 µM; in assay [18] it was no less than 55.1 µM; in assay [19] it was no less than 55.1 µM. Besides, the MIC in assay [20], in assay [21] and in assay [22] was no less than 55.1 µM in each case.
